Converted amounts (≈) assume the structure as drawn. Where two headings read alike, the source gives them in different places.
Assays:
Format in all cases: cell-based
[1] = system: Streptococcus pneumoniae 1195 (ATCC 49619); assay: MIC by broth microdilution, SPNE 1195
Procedure: (§1) Antibacterial activity in vitro is investigated by broth microdilution method in Meuller-Hinton broth as recommended by NCCLS. All strains tested are clinical isolates either sensitive or resistant to natural glycopeptides. MIC values were determined using the CLSI-recommended broth microdilution procedure (Clinical and Laboratory Standards Institute, Methods for Dilution Antimicrobial Susceptibility Tests for Bacteria That Grow Aerobically; Approved Standard-Seventh Edition.). Automated liquid handlers (Multidrop 384, Labsystems, Helsinki, Finland; Biomek 2000 and Multimek 96, Beckman Coulter, Fullerton Calif.) were used to conduct serial dilutions and liquid transfers. The MIC value for vancomycin is given for comparison. The abbreviations for organisms tested are as follow: SA 100—Staphylococcus aureus 100 (ATCC 29213); SA 757—Staphylococcus aureus 757 (MRSA); SA 2012—Staphylococcus aureus 2012 (VISA); SE 835—Staphylococcus epidermidis 835; SE 831—Staphylococcus epidermidis 831 (MRSE); EFc 101—Enterococcus faecalis 101 (ATCC 29212); EFc 848—Enterococcus faecalis 848 (VRE, Van A); EFcm 800—Enterococcus faecium 800; EFcm 752—Enterococcus faecium 752 (VRE, Van A); SPNE 1195—Streptococcus pneumoniae 1195 (ATCC 49619); SPY 712—Streptococcus pyogenes 712.

[2] = system: Staphylococcus epidermidis 835; assay: MIC by broth microdilution, SE 835
Procedure: as §1

[3] = system: Staphylococcus aureus 2012 (VISA); assay: MIC by broth microdilution, SA 2012; conditions: class symbols
Procedure: as §1

[4] = system: Staphylococcus aureus 757 (MRSA); assay: MIC by broth microdilution, SA 757; conditions: read-out: MIC SA 757
Procedure: as §1

[5] = system: Staphylococcus aureus 100 (ATCC 29213); assay: MIC by broth microdilution, SA 100
Procedure: as §1

Enterococcus faecium 800 = assay: MIC by broth microdilution, EFcm 800
Procedure: as §1

[6] = system: Enterococcus faecalis 101 (ATCC 29212); assay: MIC by broth microdilution, EFc 101; conditions: class symbols
Procedure: as §1

[7] = system: Streptococcus pyogenes 712; assay: MIC by broth microdilution, SPY 712
Procedure: as §1

[8] = system: Enterococcus faecium 752 (VRE, Van A); assay: MIC by broth microdilution, EFcm 752; conditions: class symbols
Procedure: as §1

[9] = system: Staphylococcus epidermidis 831 (MRSE); assay: MIC by broth microdilution, SE 831; conditions: read-out: MIC SE 831
Procedure: as §1

[10] = system: Enterococcus faecalis 848 (VRE, Van A); assay: MIC by broth microdilution, EFc 848; conditions: class symbols
Procedure: as §1

[11] = ATCC49619, Streptococcus pneumoniae 1195 (ATCC 49619), class symbols, read-out: MIC S PNE 1195
[12] = Staphylococcus epidermidis 835, class symbols, read-out: MIC SE 835
[13] = Staphylococcus aureus 2012 (VISA), read-out: MIC SA 2012
[14] = Staphylococcus aureus 757 (MRSA), class symbols
[15] = ATCC29213, Staphylococcus aureus 100 (ATCC 29213), class symbols, read-out: MIC SA 100
[16] = Enterococcus faecium 800, class symbols, read-out: MIC E FCM 800
[17] = ATCC29212, Enterococcus faecalis 101 (ATCC 29212), read-out: MIC E FC 101
[18] = Streptococcus pyogenes 712, class symbols, read-out: MIC S PYO 712
[19] = Enterococcus faecium 752 (VRE, Van A), read-out: MIC E FCM 752
[20] = Staphylococcus epidermidis 831 (MRSE), class symbols
[21] = Enterococcus faecalis 848 (VRE, Van A), read-out: MIC E FC 848

| MIC [1, 11] [µg/mL] | MIC [2, 12] [µg/mL] | MIC [3, 13] [µg/mL] | MIC [4, 14] [µg/mL] | MIC [5, 15] [µg/mL] | MIC (Enterococcus faecium 800; [16]) [µg/mL] | MIC [6, 17] [µg/mL] | MIC [7, 18] [µg/mL] | MIC [8, 19] [µg/mL] | MIC [9, 20] [µg/mL] | MIC [10, 21] [µg/mL] | SMILES | also measured |
| --- | --- | --- | --- | --- | --- | --- | --- | --- | --- | --- | --- | --- |
| 0.01 to 0.5 (≈ 0.00523 to 0.261 µM) | 0.01 to 0.5 (≈ 0.00523 to 0.261 µM) | 0.01 to 0.5 (≈ 0.00523 to 0.261 µM) | 0.01 to 0.5 (≈ 0.00523 to 0.261 µM) | 0.01 to 0.5 (≈ 0.00523 to 0.261 µM) | 0.01 to 0.5 (≈ 0.00523 to 0.261 µM) | 0.01 to 0.5 (≈ 0.00523 to 0.261 µM) | 0.01 to 0.5 (≈ 0.00523 to 0.261 µM) | 2 to 4 (≈ 1.05 to 2.09 µM) | 0.01 to 0.5 (≈ 0.00523 to 0.261 µM) | 8 to 16 (≈ 4.18 to 8.36 µM) | CCCCCCCCc1ccc(S(=O)(=O)NCCCCCCNCc2c(O)cc3c(c2O)-c2cc(ccc2O)[C@H]2NC(=O)[C@@H]4NC(=O)[C@H](CC(N)=O)NC(=O)[C@H](NC(=O)[C@@H](CC(C)C)NC)[C@H](O)c5ccc(c(Cl)c5)Oc5cc4cc(c5O[C@@H]4O[C@H](CO)[C@@H](O)[C@H](O)[C@H]4O[C@H]4C[C@](C)(NC(=O)NC5CC5)[C@H](O)[C@H](C)O4)Oc4ccc(cc4Cl)[C@@H](O)[C@H](NC2=O)C(=O)N[C@@H]3C(=O)O)cc1 (atropisomer, axis not shown) [Compound 366] |  |
| 0.01 to 0.5 (≈ 0.00537 to 0.268 µM) | 0.01 to 0.5 (≈ 0.00537 to 0.268 µM) | 0.5 to 1 (≈ 0.268 to 0.537 µM) | 0.01 to 0.5 (≈ 0.00537 to 0.268 µM) | 0.01 to 0.5 (≈ 0.00537 to 0.268 µM) | 0.01 to 0.5 (≈ 0.00537 to 0.268 µM) | 0.01 to 0.5 (≈ 0.00537 to 0.268 µM) | 0.01 to 0.5 (≈ 0.00537 to 0.268 µM) | 2 to 4 (≈ 1.07 to 2.15 µM) | 0.01 to 0.5 (≈ 0.00537 to 0.268 µM) | > 16 | CCCCCCc1ccc(NC(=O)NCCCCCCNCc2c(O)cc3c(c2O)-c2cc(ccc2O)[C@H]2NC(=O)[C@@H]4NC(=O)[C@H](CC(N)=O)NC(=O)[C@H](NC(=O)[C@@H](CC(C)C)NC)[C@H](O)c5ccc(c(Cl)c5)Oc5cc4cc(c5O[C@@H]4O[C@H](CO)[C@@H](O)[C@H](O)[C@H]4O[C@H]4C[C@](C)(NC(=O)NC5CC5)[C@H](O)[C@H](C)O4)Oc4ccc(cc4Cl)[C@@H](O)[C@H](NC2=O)C(=O)N[C@@H]3C(=O)O)cc1 (atropisomer, axis not shown) [Compound 368] |  |

The next lines start with the compound.

| SMILES | MIC [1, 11] [µg/mL] | MIC [2, 12] [µg/mL] | MIC [3, 13] [µg/mL] | MIC [4, 14] [µg/mL] | MIC [5, 15] [µg/mL] | MIC (Enterococcus faecium 800; [16]) [µg/mL] | MIC [6, 17] [µg/mL] | MIC [7, 18] [µg/mL] | MIC [8, 19] [µg/mL] | MIC [9, 20] [µg/mL] | MIC [10, 21] [µg/mL] | also measured |
| --- | --- | --- | --- | --- | --- | --- | --- | --- | --- | --- | --- | --- |
| CCCCCCc1ccc(S(=O)(=O)NCCCCCCNCc2c(O)cc3c(c2O)-c2cc(ccc2O)[C@H]2NC(=O)[C@@H]4NC(=O)[C@H](CC(N)=O)NC(=O)[C@H](NC(=O)[C@@H](CC(C)C)NC)[C@H](O)c5ccc(c(Cl)c5)Oc5cc4cc(c5O[C@@H]4O[C@H](CO)[C@@H](O)[C@H](O)[C@H]4O[C@H]4C[C@](C)(NC(=O)NC5CC5)[C@H](O)[C@H](C)O4)Oc4ccc(cc4Cl)[C@@H](O)[C@H](NC2=O)C(=O)N[C@@H]3C(=O)O)cc1 (atropisomer, axis not shown) [Compound 365] | 0.01 to 0.5 (≈ 0.00531 to 0.265 µM) | 0.01 to 0.5 (≈ 0.00531 to 0.265 µM) | 0.01 to 0.5 (≈ 0.00531 to 0.265 µM) | 0.01 to 0.5 (≈ 0.00531 to 0.265 µM) | 0.01 to 0.5 (≈ 0.00531 to 0.265 µM) | 0.01 to 0.5 (≈ 0.00531 to 0.265 µM) | 0.01 to 0.5 (≈ 0.00531 to 0.265 µM) | 0.01 to 0.5 (≈ 0.00531 to 0.265 µM) | 1 to 2 (≈ 0.531 to 1.06 µM) | 0.01 to 0.5 (≈ 0.00531 to 0.265 µM) | > 16 |  |
| CCCCCCc1ccc(S(=O)(=O)NCCCCCCNCc2c(O)cc3c(c2O)-c2cc(ccc2O)[C@H]2NC(=O)[C@@H]4NC(=O)[C@H](CC(N)=O)NC(=O)[C@H](NC(=O)[C@@H](CC(C)C)NC)[C@H](O)c5ccc(c(Cl)c5)Oc5cc4cc(c5O[C@@H]4O[C@H](CO)[C@@H](O)[C@H](O)[C@H]4O[C@H]4C[C@](C)(NC(N)=O)[C@H](OC(N)=O)[C@H](C)O4)Oc4ccc(cc4Cl)[C@@H](O)[C@H](NC2=O)C(=O)N[C@@H]3C(=O)O)cc1 (atropisomer, axis not shown) [Compound 370] | 0.01 to 0.5 (≈ 0.0053 to 0.265 µM) | 0.01 to 0.5 (≈ 0.0053 to 0.265 µM) | 0.01 to 0.5 (≈ 0.0053 to 0.265 µM) | 0.01 to 0.5 (≈ 0.0053 to 0.265 µM) | 0.01 to 0.5 (≈ 0.0053 to 0.265 µM) | 0.01 to 0.5 (≈ 0.0053 to 0.265 µM) | 0.01 to 0.5 (≈ 0.0053 to 0.265 µM) | 0.01 to 0.5 (≈ 0.0053 to 0.265 µM) | 4 to 8 (≈ 2.12 to 4.24 µM) | 0.01 to 0.5 (≈ 0.0053 to 0.265 µM) | > 16 |  |
| CCCCCCCCNC(=O)Oc1cc(O)c2c(c1)[C@@H](C(=O)NC1C3CC4CC(C3)CC1C4)NC(=O)[C@H]1NC(=O)[C@H](NC(=O)[C@@H]3NC(=O)[C@H](CC(N)=O)NC(=O)[C@H](NC(=O)[C@@H](CC(C)C)NC)[C@H](O)c4ccc(c(Cl)c4)Oc4cc3cc(c4OC3OC(CO)C(O)C(O)C3OC3CC(C)(N)C(O)C(C)O3)Oc3ccc(cc3Cl)[C@H]1O)c1ccc(O)c-2c1 (stereo partly shown) [Compound 33] |  |  |  |  |  |  |  |  |  |  |  | MIC ([1]; Streptococcus pneumoniae, ATCC49619, read-out: MIC S PNE 1195): 0.01 to 0.5 µg/mL (≈ 0.00575 to 0.288 µM); MIC ([2]; Staphylococcus epidermidis, 835, read-out: MIC SE 835): 0.01 to 0.5 µg/mL (≈ 0.00575 to 0.288 µM); MIC ([3]; Staphylococcus aureus, VISA, read-out: MIC SA 2012, Staphylococcus aureus 2012 (VISA)): 0.5 to 1 µg/mL (≈ 0.288 to 0.575 µM); MIC ([4]; Staphylococcus aureus, MRSA): 0.01 to 0.5 µg/mL (≈ 0.00575 to 0.288 µM); MIC ([5]; Staphylococcus aureus, ATCC29213, read-out: MIC SA 100): 0.01 to 0.5 µg/mL (≈ 0.00575 to 0.288 µM); MIC (Enterococcus faecium 800; Enterococcus faecium, 800, read-out: MIC E FCM 800): 0.01 to 0.5 µg/mL (≈ 0.00575 to 0.288 µM); MIC ([6]; Enterococcus faecalis, ATCC29212, read-out: MIC E FC 101, Enterococcus faecalis 101 (ATCC 29212)): 0.01 to 0.5 µg/mL (≈ 0.00575 to 0.288 µM); MIC ([7]; Streptococcus pyogenes, 712, read-out: MIC S PYO 712): 0.01 to 0.5 µg/mL (≈ 0.00575 to 0.288 µM); MIC ([8]; Enterococcus faecium, VRE, read-out: MIC E FCM 752, Enterococcus faecium 752 (VRE, Van A)): 0.5 to 1 µg/mL (≈ 0.288 to 0.575 µM); MIC ([9]; Staphylococcus epidermidis, MRSE): 0.01 to 0.5 µg/mL (≈ 0.00575 to 0.288 µM); MIC ([10]; Enterococcus faecalis, VRE, read-out: MIC E FC 848, Enterococcus faecalis 848 (VRE, Van A)): 2 to 4 µg/mL (≈ 1.15 to 2.3 µM) |

Reference: patent US20110015119A1, “NOVEL SEMI-SYNTHETIC GLYCOPEPTIDES AS ANTIBACTERIAL AGENTS” (LEAD THERAPEUTICS, INC., priority 2009, published 2011)
